IC50, INH and fractional inhibitory concentration index (FICI) data for 23 molecules are collected here from ChEMBL document CHEMBL1687730, “New high-throughput screening assay to reveal similarities and differences in inhibitory sensitivities of multidrug ATP-binding cassette transporters” (Antimicrob Agents Chemother, 2009).

The target in assay [1] is Pleiotropic ABC efflux transporter of multiple drugs (Saccharomyces cerevisiae S288c, UniProt P33302). The experiment in a line: Inhibition of Pdr5p-mediated rhodamine 6G transport in Saccharomyces cerevisiae MKPDR5h plasma membrane by spectrofluorometric assay.
Pleiotropic ABC efflux transporter of multiple drugs, sequence (P33302 whole entry): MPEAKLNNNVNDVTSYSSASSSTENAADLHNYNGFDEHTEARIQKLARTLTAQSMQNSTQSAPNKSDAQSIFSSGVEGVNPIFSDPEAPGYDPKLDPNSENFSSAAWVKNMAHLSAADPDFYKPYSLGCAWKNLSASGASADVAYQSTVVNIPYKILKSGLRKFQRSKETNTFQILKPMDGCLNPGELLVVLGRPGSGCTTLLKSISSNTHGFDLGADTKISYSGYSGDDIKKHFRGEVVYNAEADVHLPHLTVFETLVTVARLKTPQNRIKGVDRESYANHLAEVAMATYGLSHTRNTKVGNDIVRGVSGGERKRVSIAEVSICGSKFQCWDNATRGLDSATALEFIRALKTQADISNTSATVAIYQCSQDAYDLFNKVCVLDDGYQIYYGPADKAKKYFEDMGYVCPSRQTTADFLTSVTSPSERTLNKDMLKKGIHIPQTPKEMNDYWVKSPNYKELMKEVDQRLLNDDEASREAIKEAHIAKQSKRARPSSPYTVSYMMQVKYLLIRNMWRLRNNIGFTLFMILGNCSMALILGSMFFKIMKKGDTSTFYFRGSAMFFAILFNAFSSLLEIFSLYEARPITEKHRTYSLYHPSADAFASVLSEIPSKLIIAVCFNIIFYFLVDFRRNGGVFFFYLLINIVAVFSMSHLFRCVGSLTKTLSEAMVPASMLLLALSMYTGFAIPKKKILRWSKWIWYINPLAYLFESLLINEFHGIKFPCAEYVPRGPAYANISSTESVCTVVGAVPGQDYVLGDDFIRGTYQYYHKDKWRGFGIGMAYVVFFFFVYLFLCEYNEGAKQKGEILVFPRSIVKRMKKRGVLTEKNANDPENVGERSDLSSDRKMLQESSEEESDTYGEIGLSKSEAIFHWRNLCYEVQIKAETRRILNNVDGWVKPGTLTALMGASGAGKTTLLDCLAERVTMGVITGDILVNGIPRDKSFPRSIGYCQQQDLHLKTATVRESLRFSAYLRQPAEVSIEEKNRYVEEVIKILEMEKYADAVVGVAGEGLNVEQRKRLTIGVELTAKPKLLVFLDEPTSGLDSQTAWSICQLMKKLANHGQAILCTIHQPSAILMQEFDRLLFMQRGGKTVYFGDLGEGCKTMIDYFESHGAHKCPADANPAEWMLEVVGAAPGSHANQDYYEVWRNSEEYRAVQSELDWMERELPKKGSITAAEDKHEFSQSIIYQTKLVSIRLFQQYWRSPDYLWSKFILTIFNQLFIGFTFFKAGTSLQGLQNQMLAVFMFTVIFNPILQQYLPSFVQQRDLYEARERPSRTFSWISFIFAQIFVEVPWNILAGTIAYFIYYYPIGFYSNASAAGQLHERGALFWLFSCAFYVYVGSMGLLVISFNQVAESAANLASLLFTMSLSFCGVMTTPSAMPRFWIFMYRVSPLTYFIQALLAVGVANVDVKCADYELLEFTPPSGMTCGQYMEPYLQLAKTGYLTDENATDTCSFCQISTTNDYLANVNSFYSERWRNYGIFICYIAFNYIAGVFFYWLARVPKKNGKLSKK
The target of assay [2] is Pleiotropic ABC efflux transporter of multiple drugs (Saccharomyces cerevisiae S288c) (UniProt P33302). The experiment in a line: Inhibition of Saccharomyces cerevisiae MKPDR5h multidrug transporter Pdr5p assessed as concentration required to threefold increase in rate of fluorescence signal relative to absence of inhibitor by fluorescein diacetate based high-throughput screening spectrofluorometric assay.
Pleiotropic ABC efflux transporter of multiple drugs (Saccharomyces cerevisiae S288c), sequence (P33302 whole entry): as above

The test system of assay [3] is Saccharomyces cerevisiae. The experiment in a line: Inhibition of Saccharomyces cerevisiae MKCDR1h multidrug transporter Cdr1p assessed as concentration required to threefold increase in rate of fluorescence signal relative to absence of inhibitor by fluorescein diacetate based high-throughput screening spectrofluorometric assay.
The target in assay [4] is Snq2p (Saccharomyces cerevisiae (strain Lalvin EC1118 / Prise de mousse)(Baker's yeast)) (UniProt C8Z4T0). The experiment in a line: Inhibition of Saccharomyces cerevisiae MKSNQ2h multidrug transporter Snq2p assessed as concentration required to threefold increase in rate of fluorescence signal relative to absence of inhibitor by fluorescein diacetate based high-throughput screening spectrofluorometric assay.
Snq2p (Saccharomyces cerevisiae (strain Lalvin EC1118 / Prise de mousse)(Baker's yeast)), sequence (C8Z4T0 as listed by the source): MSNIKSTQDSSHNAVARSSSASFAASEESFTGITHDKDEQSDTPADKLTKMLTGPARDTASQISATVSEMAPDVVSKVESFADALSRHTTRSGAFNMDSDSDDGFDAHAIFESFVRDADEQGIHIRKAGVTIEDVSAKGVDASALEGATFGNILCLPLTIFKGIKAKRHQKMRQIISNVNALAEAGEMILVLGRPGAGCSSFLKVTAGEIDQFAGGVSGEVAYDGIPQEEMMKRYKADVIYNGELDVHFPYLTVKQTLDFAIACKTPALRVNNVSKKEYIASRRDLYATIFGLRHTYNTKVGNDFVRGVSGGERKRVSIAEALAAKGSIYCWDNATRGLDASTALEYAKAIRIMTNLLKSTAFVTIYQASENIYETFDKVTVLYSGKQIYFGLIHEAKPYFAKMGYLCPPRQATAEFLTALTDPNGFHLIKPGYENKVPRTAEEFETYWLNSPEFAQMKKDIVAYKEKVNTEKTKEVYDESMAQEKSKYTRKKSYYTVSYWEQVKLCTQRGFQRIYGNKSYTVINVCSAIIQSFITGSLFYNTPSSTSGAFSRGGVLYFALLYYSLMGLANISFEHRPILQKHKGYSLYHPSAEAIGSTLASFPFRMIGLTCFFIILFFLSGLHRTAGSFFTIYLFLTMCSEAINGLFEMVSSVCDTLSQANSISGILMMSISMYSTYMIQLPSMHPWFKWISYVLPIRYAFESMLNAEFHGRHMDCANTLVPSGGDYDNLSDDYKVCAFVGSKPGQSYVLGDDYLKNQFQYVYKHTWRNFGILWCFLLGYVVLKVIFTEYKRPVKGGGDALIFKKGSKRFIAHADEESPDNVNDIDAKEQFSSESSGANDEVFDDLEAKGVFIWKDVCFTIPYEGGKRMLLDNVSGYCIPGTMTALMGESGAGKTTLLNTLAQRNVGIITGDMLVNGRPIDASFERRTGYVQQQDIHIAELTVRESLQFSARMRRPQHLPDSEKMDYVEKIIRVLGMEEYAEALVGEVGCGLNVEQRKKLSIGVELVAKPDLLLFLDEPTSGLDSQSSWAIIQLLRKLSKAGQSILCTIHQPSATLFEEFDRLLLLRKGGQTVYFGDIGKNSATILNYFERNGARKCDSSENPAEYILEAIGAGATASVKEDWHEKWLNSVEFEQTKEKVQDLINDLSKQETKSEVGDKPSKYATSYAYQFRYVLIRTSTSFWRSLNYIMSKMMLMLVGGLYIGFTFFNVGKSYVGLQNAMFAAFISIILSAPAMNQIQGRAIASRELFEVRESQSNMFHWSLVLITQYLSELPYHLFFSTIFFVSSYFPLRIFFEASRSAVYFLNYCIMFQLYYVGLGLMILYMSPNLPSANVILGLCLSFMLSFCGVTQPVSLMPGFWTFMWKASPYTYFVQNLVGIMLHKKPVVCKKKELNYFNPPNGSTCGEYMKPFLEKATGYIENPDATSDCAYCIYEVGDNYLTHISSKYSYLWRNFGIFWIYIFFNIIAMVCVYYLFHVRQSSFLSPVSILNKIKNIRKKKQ

Assay [5] deals with Saccharomyces cerevisiae. The experiment in a line: Inhibition of Saccharomyces cerevisiae MKCDR1h multidrug transporter Cdr1p assessed as potentiation of ketoconazole-induced antifungal activity by Checkerboard assay.

Some results are limits rather than exact numbers.

Consider `COc1ccc2c(c1)N(C[C@@H](C)CN(C)C)c1ccccc1S2` [DEXTROMEPROMAZINE], for which, in assay [1], the IC50 (as a rule, the concentration that gives 50% inhibition) came out at 9 µM. Moreover, the results for the INH in assay [2], in assay [3] and in assay [4] were 101 µM, 273 µM and 100 µM, respectively.
As to `CSc1ccc2c(c1)N(CCC1CCCCN1C)c1ccccc1S2` (stereo not drawn), the values for the INH in assay [2], in assay [3] and in assay [4] were 17 µM, 26 µM and 19.4 µM, respectively.
Consider `OCCN1CCN(CCCN2c3ccccc3Sc3ccc(Cl)cc32)CC1` [PERPHENAZINE], for which, in assay [1], 1.4 µM corresponded to half-maximal inhibition (IC50). Moreover, the figures for the INH in assay [2], in assay [3] and in assay [4] were 6.4 µM, 17.2 µM and 13.1 µM, respectively.
In the case of `CN1CCN(CCCN2c3ccccc3Sc3ccc(C(F)(F)F)cc32)CC1` [TRIFLUOPERAZINE], the IC50 in assay [1] was 1.4 µM. Further, the INH in assay [2] came out at 8.3 µM; in assay [3], 9.8 µM; in assay [4] it was 6.9 µM.
`CN(C)CCCN1c2ccccc2Sc2ccc(C(F)(F)F)cc21` [TRIFLUPROMAZINE] gave an IC50 in assay [1] of 4.9 µM. For the same molecule, the INH in assay [2] amounted to 47 µM; in assay [3], 49 µM; in assay [4] it was 47 µM.
As for `CCSc1ccc2c(c1)N(CCCN1CCN(C)CC1)c1ccccc1S2` [THIETHYLPERAZINE], the IC50 in assay [1] was 2.3 µM. Further, the INH in assay [2] was determined as 5.6 µM; in assay [3], 9.4 µM; in assay [4], 3.2 µM.
`CN1CCN(CCCN2c3ccccc3Sc3ccc(Cl)cc32)CC1` [PROCHLORPERAZINE] displayed an IC50 in assay [1] of 1.7 µM. Also, the INH was found to be 7.2 µM in assay [2], 11 µM in assay [3] and 6.6 µM in assay [4].
In assay [1], `COc1ccc2c(c1)N(C[C@H](C)CN(C)C)c1ccccc1S2` [LEVOMEPROMAZINE] gave an IC50 of 9.6 µM. In addition, the results for the INH in assay [2], in assay [3] and in assay [4] were 128 µM, 252 µM and 100 µM, respectively.
In assay [1], `CCN(CC)CCN1c2ccccc2Sc2ccccc21` [DIETHAZINE] showed an IC50 of 10.3 µM. The INH in assay [2] is 331 µM; in assay [3] it was 317 µM; in assay [4], 239 µM.
In the case of `O=C(O)CCCCCCNC1c2ccccc2CCc2ccccc21` [AMINEPTINE], the IC50 in assay [1] is more than 400 µM. Besides, the INH in assay [2], in assay [3] and in assay [4] was more than 433 µM throughout.
Regarding `CC(CN1c2ccccc2Sc2ccccc21)N(C)C` (stereo not drawn) [PROMETHAZINE], in assay [1], inhibition was half-maximal at 17.7 µM (IC50). Also, the figures for the INH in assay [2], in assay [3] and in assay [4] were 285 µM, 275 µM and 117 µM, respectively.
On to `NCCCCN1c2ccccc2Sc2ccc(Cl)cc21`, for which the IC50 in assay [1] came out at 0.7 µM. Besides, the INH worked out at 1.9 µM in assay [2], 1.9 µM in assay [3] and 2.1 µM in assay [4]. Moreover, the fractional inhibitory concentration index (FICI) in assay [5] turned out to be 0.06.
In assay [1], `NCCCN1c2ccccc2Sc2ccc(C(F)(F)F)cc21` came in with an IC50 of 6.4 µM. Besides, the INH in assay [2] is 7.7 µM; in assay [3], 6.5 µM; in assay [4], 6.9 µM.
For `NCCCN1c2ccccc2Sc2ccc(Cl)cc21` [NOR2-CHLORPROMAZINE], in assay [1], inhibition was half-maximal at 3.2 µM (IC50). Besides, the INH was determined as 4.2 µM in assay [2], 4.3 µM in assay [3] and 5.8 µM in assay [4].
On to `OCCN1CCN(CCCN2c3ccccc3Sc3ccc(C(F)(F)F)cc32)CC1` [FLUPHENAZINE], for which, in assay [1], the IC50 came out at 1.7 µM. Besides, the results for the INH in assay [2], in assay [3] and in assay [4] were 5.4 µM, 12.4 µM and 8.8 µM, respectively. For the same molecule, the fractional inhibitory concentration index (FICI) in assay [5] turned out to be 0.09.
`CN(C)CCCN1c2ccccc2CCc2ccccc21` [IMIPRAMINE] yielded an IC50 in assay [1] of 22 µM. Further, the INH in assay [2] was 166 µM; in assay [3] it was more than 433 µM; in assay [4], 198 µM.
`NCCCN1c2ccccc2Sc2ccccc21`: in assay [1], the IC50 was 7.4 µM. Besides, the results for the INH in assay [2], in assay [3] and in assay [4] were 14.7 µM, 36 µM and 12.4 µM, respectively.
For `CN(C)CC/C=C1/c2ccccc2Sc2ccc(Cl)cc21` [CHLORPROTHIXENE], in that order: 5.1 µM, 26 µM, 53 µM and 22 µM.
In turn, `CN(C)CCCN1c2ccccc2Sc2ccc(Cl)cc21` [CHLORPROMAZINE] gave an IC50 in assay [1] of 4.5 µM. Moreover, the figures for the INH in assay [2], in assay [3] and in assay [4] were 57 µM, 57 µM and 32 µM, respectively.
In assay [1], `NCCCCN1c2ccccc2Sc2ccc(C(F)(F)F)cc21` displayed an IC50 of 1.3 µM. For the same molecule, the INH was found to be 3.7 µM in assay [2], 4.6 µM in assay [3] and 4.6 µM in assay [4].
As for `NCCCCN1c2ccccc2Sc2ccccc21`, the IC50 in assay [1] was 3.1 µM. In addition, the INH stood at 7 µM in assay [2], 29 µM in assay [3] and 13.5 µM in assay [4].
With `c1ccc2c(c1)Nc1ccccc1S2` [PHENOTHIAZINE], in assay [1], the IC50 was more than 400 µM. Moreover, the values for the INH in assay [2], in assay [3] and in assay [4] were more than 433 µM, more than 433 µM and 90 µM, respectively.
With `CN(C)CCCN1c2ccccc2Sc2ccccc21` [PROMAZINE], in assay [1], half-maximal inhibition (IC50) was put at 11.3 µM. The INH in assay [2] was 96 µM; in assay [3] it was 278 µM; in assay [4] it was 131 µM.
